Test: Example 1B: residual ratio of Compound A1 at 2 concentrations stored at 5° C.
Type: physicochemical
Description: According to Table 3 below, Compound A1 was dissolved in each of the buffer solutions at 2 concentrations. Each of these solutions was dispensed into a glass vial and stored at 5° C. After the storage, a residual ratio of Compound A1 was calculated according to a test method described below.
Test method: In the solution after the storage, the residual ratio was analyzed according to a normal method using a liquid chromatography apparatus Prominence (manufactured by Shimadzu Corporation) and an ultraviolet absorptiometer (measurement wavelength: 254 nm, Prominence (manufactured by Shimadzu Corporation)). At this time, SUMIPAX ODS (3 mm×150 mm, 5 μm, manufactured by SCAS) was used as a column.
The residual ratio (%) of Compound A1 during each storage period at 5° C. was calculated as follows.
Residual ratio (%) of Compound A1 during each storage period=peak area of Compound A1 in sample solution/sum of peak area of sample solution×100

With `Cc1c(Cl)cc(S(=O)(=O)[O-])cc1NC(=O)NC[C@H](N)C(=O)O.[Na+]` [Compound A1, sodium 3-{[(2S)-2-amino-2-carboxyethyl]carbamoylamino}-5-chloro-4-methylbenzenesulfonate] the “Residual ratio (%)” value (0.1 mg/mL, pH 1.1, 5° C., 23 hours) was 100%, the “Residual ratio (%)” value (0.1 mg/mL, pH 1.1, 5° C., 141 hours) was 100% and the “Residual ratio (%)” value (0.1 mg/mL, pH 1.1, 5° C., 570 hours) was 100%. The “Residual ratio (%)” value (0.1 mg/mL, pH 7.0, 5° C., 23 hours) was 100%, the “Residual ratio (%)” value (0.1 mg/mL, pH 7.0, 5° C., 141 hours) was 100% and the “Residual ratio (%)” value (0.1 mg/mL, pH 7.0, 5° C., 570 hours) was 100%. The “Residual ratio (%)” value (10 mg/mL, pH 1.1, 5° C., 23 hours) was 100%, the “Residual ratio (%)” value (10 mg/mL, pH 1.1, 5° C., 141 hours) was 100% and the “Residual ratio (%)” value (10 mg/mL, pH 1.1, 5° C., 570 hours) was 100%. For the same compound, the “Residual ratio (%)” value (10 mg/mL, pH 7.0, 5° C., 23 hours) was 100%, the “Residual ratio (%)” value (10 mg/mL, pH 7.0, 5° C., 141 hours) was 100% and the “Residual ratio (%)” value (10 mg/mL, pH 7.0, 5° C., 570 hours) was 100%. For the same compound, the “stability of the formulation” value (pH of 1.1 and pH of 7.0, 5° C., regardless of the concentration) was “stable”.
